Measurements taken from patent publication US12560588B2, “High-efficiency screening method for RNA-targeting drugs using nanopores” (KOREA RESEARCH INSTITUTE OF BIOSCIENCE AND BIOTECHNOLOGY, priority 2020, dated 2026).

Tested on: ARS mutant (ARS-Mut) with four base mutations (U28G, G42C, U47C and U51C)
Format: binding

`Nc1ncnc2nc[nH]c12` [adenine] was tested, and the “change versus free ARS-Mut” value was “not much different” and the td was 0.50 ms.
